The target of this assay is T1, human LTA4 hydrolase (Homo sapiens, UniProt P09960).
T1 sequence (P09960 1-611): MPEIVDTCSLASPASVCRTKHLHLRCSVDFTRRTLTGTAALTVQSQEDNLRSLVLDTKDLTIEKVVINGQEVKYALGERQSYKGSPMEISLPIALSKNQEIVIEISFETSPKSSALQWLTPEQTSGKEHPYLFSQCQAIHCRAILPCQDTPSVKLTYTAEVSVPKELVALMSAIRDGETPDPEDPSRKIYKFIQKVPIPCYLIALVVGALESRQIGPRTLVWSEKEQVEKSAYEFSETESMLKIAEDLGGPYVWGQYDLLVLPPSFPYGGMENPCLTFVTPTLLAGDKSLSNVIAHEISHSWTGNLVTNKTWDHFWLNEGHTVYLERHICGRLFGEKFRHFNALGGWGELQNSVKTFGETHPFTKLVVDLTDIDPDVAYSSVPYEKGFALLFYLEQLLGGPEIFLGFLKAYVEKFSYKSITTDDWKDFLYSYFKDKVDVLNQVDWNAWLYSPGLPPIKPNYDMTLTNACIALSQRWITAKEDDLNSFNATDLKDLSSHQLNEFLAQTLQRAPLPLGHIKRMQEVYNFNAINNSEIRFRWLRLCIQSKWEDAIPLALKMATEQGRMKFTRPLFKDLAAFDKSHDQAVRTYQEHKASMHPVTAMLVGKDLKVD
The assay can be described thus: LTA4H Enzyme assay (cleavage of Arg-AMC, fluorescence). The assay is classed as biochemical. The conditions noted are these: LTA4H Enzyme 1 nM, Arg-AMC substrate 50 μM, room temperature 1 h, fluorescence; read-out: IC50 values of LTA4H Enzyme assay. The method, boiled down: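 Peptidase activity of human LTA4H (1 nM final) on Arg-AMC (50 μM final), with compound, 1 h at room temperature. Buffer: 50 mM Tris-HCl pH 7.5, 100 mM KCl, 0.5% BSA.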
Usually IC50 stands for the point on the concentration scale where inhibition reaches its midpoint. As to `CN(Cc1ccc([C@H]2COc3cccnc3O2)cc1)C1CCN(S(C)(=O)=O)CC1` [Example 169, N-{4-[(3S)-2,3-dihydro[1,4]dioxino[2,3-b]pyridin-3-yl]benzyl}-N-methyl-1-(methylsulfonyl)piperidin-4-amine], the IC50 turned out to be 0.33 nM.
With `COCCOC1CCN(Cc2ccc([C@H]3COc4cccnc4O3)cc2)CC1` [Example 170, (3S)-3-(4-{[4-(2-methoxyethoxy)piperidin-1-yl]methyl}phenyl)-2,3-dihydro[1,4]dioxino[2,3-b]pyridine] the figure was 0.47 nM; with `CN(C)C(=O)CC1CCN(Cc2ccc([C@H]3COc4cccnc4O3)cc2)CC1` [Example 171, 2-(1-{4-[(3S)-2,3-dihydro[1,4]dioxino[2,3-b]pyridin-3-yl]benzyl}piperidin-4-yl)-N,N-dimethylacetamide], 0.45 nM; with `CS(=O)(=O)C1CCN(Cc2ccc([C@H]3COc4cccnc4O3)cc2)CC1` [Example 172, (3S)-3-(4-{[4-(methylsulfonyl)piperidin-1-yl]methyl}phenyl)-2,3-dihydro[1,4]dioxin[2,3-b]pyridine], 0.53 nM.
For `CS(=O)(=O)NC1CCN(Cc2ccc([C@H]3COc4ccccc4O3)cc2)CC1` [Example 176, N-(1-{4-[(2S)-2,3-dihydro-1,4-benzodioxin-2-yl]benzyl}piperidin-4-yl)methanesulfonamide], the IC50 was found to be 0.24 nM.
In the case of `N#CC1CCN(Cc2ccc([C@H]3COc4ccccc4O3)cc2)CC1` [Example 177, 1-{4-[(2S)-2,3-dihydro-1,4-benzodioxin-2-yl]benzyl}piperidine-4-carbonitrile] it was 1.45 nM; in that of `CNC(=O)C1CCN(Cc2ccc([C@H]3COc4ccccc4O3)cc2)CC1` [Example 179, 1-{4-[(2S)-2,3-dihydro-1,4-benzodioxin-2-yl]benzyl}-N-methylpiperidine-4-carboxamide], 0.16 nM.
With `O=C(C1CCN(Cc2ccc([C@H]3COc4ccccc4O3)cc2)CC1)N1CCOCC1` [Example 180, (1-{4-[(2S)-2,3-dihydro-1,4-benzodioxin-2-yl]benzyl}piperidin-4-yl)(morpholin-4-yl)methanone] the figure was 0.12 nM; with `O=C(O)CCCC1CCN(Cc2ccc([C@H]3COc4ccccc4O3)cc2)CC1` [Example 181, 4-(1-{4-[(2S)-2,3-dihydro-1,4-benzodioxin-2-yl]benzyl}piperidin-4-yl)butanoic acid], 0.042 nM; with `O=C(O)C[C@H]1CCCN(Cc2ccc([C@H]3COc4ccccc4O3)cc2)C1` [Example 182, [(3R)-1-{4-[(2S)-2,3-dihydro-1,4-benzodioxin-2-yl]benzyl}piperidin-3-yl]acetic acid], 0.29 nM.
As for `O=C(O)C[C@H]1CCN(Cc2ccc([C@H]3COc4ccccc4O3)cc2)C1` [Example 184, [(3R)-1-{4-[(2S)-2,3-dihydro-1,4-benzodioxin-2-yl]benzyl}pyrrolidin-3-yl]acetic acid], the IC50 worked out at 0.11 nM.
As to `CS(=O)(=O)N1CCN(Cc2ccc([C@H]3COc4cccnc4O3)cc2)CC1` [Example 188, (3S)-3-(4-{[4-(methylsulfonyl)piperazin-1-yl]methyl}phenyl)-2,3-dihydro[1,4]dioxino[2,3-b]pyridine], the IC50 is 0.87 nM.
On to `O=C(O)C1CCN(Cc2ccc([C@H]3COc4cccnc4O3)cc2)CC1` [Example 189, 1-{4-[(3S)-2,3-dihydro[1,4]dioxino[2,3-b]pyridin-3-yl]benzyl}piperidine-4-carboxylic acid], for which the IC50 stood at 0.16 nM.
In the case of `O=C(O)[C@H]1CC[C@@H](NCc2ccc([C@H]3COc4ccccc4O3)cc2)C1` [Example 191, (1S,3R)-3-({4-[(2S)-2,3-dihydro-1,4-benzodioxin-2-yl]benzyl}amino)cyclopentane-carboxylic acid] it was 1.62 nM; in that of `O=C(O)C1CCN(Cc2ccc([C@@H]3COc4ccccc4O3)cc2)CC1` [Example 201, (R)-1-[4-(2,3-Dihydro-benzo[1,4]dioxin-2-yl)-benzyl]-piperidine-4-carboxylic acid], 1.59 nM.
As to `Fc1ccc2c(c1)OC(c1ccc(CN3CCOCC3)cc1)CO2` (centres unmarked) [Example 202, 4-[4-(7-Fluoro-2,3-dihydro-benzo[1,4]dioxin-2-yl)-benzyl]-morpholine], the IC50 is 23.4 nM.
With `Fc1ccc2c(c1)OC(c1ccc(CN3CCCC3)cc1)CO2` (centres unmarked) [Example 203, 1-[4-(7-Fluoro-2,3-dihydro-benzo[1,4]dioxin-2-yl)-benzyl]-pyrrolidine] the figure was 2.94 nM; with `c1cnc2c(c1)OC[C@@H](c1ccc(CN3CCOCC3)cc1)O2` [Example 205, (R)-3-(4-Morpholin-4-ylmethyl-phenyl)-2,3-dihydro-[1,4]dioxino[2,3-b]pyridine], 27.5 nM.
Take `NC(=O)C1CCN(Cc2ccc([C@H]3COc4cccnc4O3)cc2)CC1` [Example 206, 1-{4-[(3S)-2,3-dihydro[1,4]dioxino[2,3-b]pyridin-3-yl]benzyl}piperidine-4-carboxamide]: the IC50 was determined as 0.19 nM.
With `NC(=O)C1CCN(Cc2ccc([C@@H]3COc4cccnc4O3)cc2)CC1` [Example 207, 1-{4-[(3R)-2,3-dihydro[1,4]dioxino[2,3-b]pyridin-3-yl]benzyl}piperidine-4-carboxamide] the figure was 0.86 nM; with `O=C1CCCN1Cc1ccc(C2COc3cccnc3O2)cc1` (centres unmarked) [Example 208, 11-[4-(2,3-dihydro-[1,4]dioxino[2,3-b]pyridin-3-yl)-benzyl]-pyrrolidin-2-one], 21.4 nM; with `O=C1OCCN1Cc1ccc(C2COc3cccnc3O2)cc1` (centres unmarked) [Example 209, 3-[4-(2,3-dihydro[1,4]dioxino[2,3-b]pyridin-3-yl)benzyl]-1,3-oxazolidin-2-one], 12.4 nM.
On to `NCc1ccc(C2COc3cccnc3O2)cc1` (centres unmarked) [Example 210, 4-(2,3-Dihydro-[1,4]dioxino[2,3-b]pyridin-3-yl)-benzylamine], for which the IC50 is 19 nM.
Regarding `CC1(C(=O)O)CCN(Cc2ccc([C@H]3COc4ccccc4O3)cc2)CC1` [Example 211, 1-[(S)-4-(2,3-Dihydro-benzo[1,4]dioxin-2-yl)-benzyl]-4-methyl-piperidine-4-carboxylic acid], the IC50 came out at 0.69 nM.
With `C[C@H]1CN(Cc2ccc([C@H]3COc4ccccc4O3)cc2)CC[C@H]1C(=O)O` [Example 212], the half-maximal inhibitory concentration (IC50) is 0.49 nM.
In the case of `O=C(O)C1(F)CCN(Cc2ccc([C@H]3COc4ccccc4O3)cc2)CC1` [Example 213, 1-{4-[(2S)-2,3-dihydro-1,4-benzodioxin-2-yl]benzyl}-4-fluoropiperidine-4-carboxylic acid] it was 0.81 nM.
In the case of `O=C(O)[C@H]1CCN(Cc2ccc([C@H]3COc4ccccc4O3)cc2)C1` [Example 215, (3S)-1-{4-[(2S)-2,3-dihydro-1,4-benzodioxin-2-yl]benzyl}pyrrolidine-3-carboxylic acid], the IC50 came to 0.7 nM.
As for `c1ccc2c(c1)OC[C@H](c1ccc(CN3CCC(c4nnn[nH]4)CC3)cc1)O2` [Example 216, 1-[(S)-4-(2,3-Dihydro-benzo[1,4]dioxin-2-yl)-benzyl]-4-(1H-tetrazol-5-yl)-piperidine], the IC50 was 0.13 nM.
For the compound `NC1CCN(Cc2ccc([C@H]3COc4ccccc4O3)cc2)CC1` [Example 217, 1-[(S)-4-(2,3-Dihydro-benzo[1,4]dioxin-2-yl)-benzyl]-piperidin-4-ylamine], the IC50 was 2.28 nM.
Regarding `O=C(CO)NC1CCN(Cc2ccc([C@H]3COc4ccccc4O3)cc2)CC1` [Example 218, N-{1-[(S)-4-(2,3-Dihydro-benzo[1,4]dioxin-2-yl)-benzyl]-piperidin-4-yl}-2-hydroxy-acetamide], the IC50 was 0.37 nM.
With `CC(C)(O)C(=O)NC1CCN(Cc2ccc([C@H]3COc4cccnc4O3)cc2)CC1` [Example 221, N-(1-{4-[(3S)-2,3-dihydro[1,4]dioxino[2,3-b]pyridin-4-yl]benzyl}piperidin-4-yl)-2-hydroxy-2-methylpropanamide] the figure was 0.16 nM.
In the case of `O=C(CO)NC1CCN(Cc2ccc([C@H]3COc4cccnc4O3)cc2)CC1` [Example 222, N-(1-{4-[(3S)-2,3-dihydro[1,4]dioxino[2,3-b]pyridin-3-yl]benzyl}piperidin-4-yl)-2-hydroxyacetamide] it was 0.14 nM; in that of `O=C(NC1CCN(Cc2ccc([C@H]3COc4cccnc4O3)cc2)CC1)C1(O)CC1` [Example 223, N-(1-{4-[(3S)-2,3-dihydro[1,4]dioxino[2,3-b]pyridin-3-yl]benzyl}piperidin-4-yl)-1-hydroxycyclopropanecarboxamide], 0.16 nM.
Take `O=S1(=O)CCCN1C1CCN(Cc2ccc([C@H]3COc4ccccc4O3)cc2)CC1` [Example 224, 1-[(S)-4-(2,3-Dihydro-benzo[1,4]dioxin-2-yl)-benzyl]-4-(1,1-dioxo-1λ^6-isothiazolidin-2-yl)-piperidine]: the IC50 was 0.13 nM.
With `CC(c1ccc([C@H]2COc3ccccc3O2)cc1)N1CCCC1` (stereo partly drawn) [Example 225, 1-{1-[(S)-4-(2,3-dihydro-benzo[1,4]dioxin-2-yl)-phenyl]-ethyl}-pyrrolidine] the figure was 5.3 nM.

These data come from patent publication US8946203B2, “Benzodioxane inhibitors of leukotriene production” (Boehringer Ingelheim International GmbH, priority 2012, dated 2015).
